Measured values reported in ChEMBL document CHEMBL3526080, “In vitro inhibition of the bile salt export pump correlates with risk of cholestatic drug-induced liver injury in humans” (Drug Metab Dispos, 2012).

Key:
Bile salt export pump [1] = molecular target: Bile salt export pump (Rattus norvegicus, UniProt O70127); assay: Inhibition of Sprague-Dawley rat Bsep expressed in plasma membrane vesicles of Sf21 cells assessed as inhibition of ATP-dependent [3H]taurocholate uptake; format: cell membranes
Chain of Bile salt export pump (Rattus norvegicus, UniProt O70127) (O70127 whole entry): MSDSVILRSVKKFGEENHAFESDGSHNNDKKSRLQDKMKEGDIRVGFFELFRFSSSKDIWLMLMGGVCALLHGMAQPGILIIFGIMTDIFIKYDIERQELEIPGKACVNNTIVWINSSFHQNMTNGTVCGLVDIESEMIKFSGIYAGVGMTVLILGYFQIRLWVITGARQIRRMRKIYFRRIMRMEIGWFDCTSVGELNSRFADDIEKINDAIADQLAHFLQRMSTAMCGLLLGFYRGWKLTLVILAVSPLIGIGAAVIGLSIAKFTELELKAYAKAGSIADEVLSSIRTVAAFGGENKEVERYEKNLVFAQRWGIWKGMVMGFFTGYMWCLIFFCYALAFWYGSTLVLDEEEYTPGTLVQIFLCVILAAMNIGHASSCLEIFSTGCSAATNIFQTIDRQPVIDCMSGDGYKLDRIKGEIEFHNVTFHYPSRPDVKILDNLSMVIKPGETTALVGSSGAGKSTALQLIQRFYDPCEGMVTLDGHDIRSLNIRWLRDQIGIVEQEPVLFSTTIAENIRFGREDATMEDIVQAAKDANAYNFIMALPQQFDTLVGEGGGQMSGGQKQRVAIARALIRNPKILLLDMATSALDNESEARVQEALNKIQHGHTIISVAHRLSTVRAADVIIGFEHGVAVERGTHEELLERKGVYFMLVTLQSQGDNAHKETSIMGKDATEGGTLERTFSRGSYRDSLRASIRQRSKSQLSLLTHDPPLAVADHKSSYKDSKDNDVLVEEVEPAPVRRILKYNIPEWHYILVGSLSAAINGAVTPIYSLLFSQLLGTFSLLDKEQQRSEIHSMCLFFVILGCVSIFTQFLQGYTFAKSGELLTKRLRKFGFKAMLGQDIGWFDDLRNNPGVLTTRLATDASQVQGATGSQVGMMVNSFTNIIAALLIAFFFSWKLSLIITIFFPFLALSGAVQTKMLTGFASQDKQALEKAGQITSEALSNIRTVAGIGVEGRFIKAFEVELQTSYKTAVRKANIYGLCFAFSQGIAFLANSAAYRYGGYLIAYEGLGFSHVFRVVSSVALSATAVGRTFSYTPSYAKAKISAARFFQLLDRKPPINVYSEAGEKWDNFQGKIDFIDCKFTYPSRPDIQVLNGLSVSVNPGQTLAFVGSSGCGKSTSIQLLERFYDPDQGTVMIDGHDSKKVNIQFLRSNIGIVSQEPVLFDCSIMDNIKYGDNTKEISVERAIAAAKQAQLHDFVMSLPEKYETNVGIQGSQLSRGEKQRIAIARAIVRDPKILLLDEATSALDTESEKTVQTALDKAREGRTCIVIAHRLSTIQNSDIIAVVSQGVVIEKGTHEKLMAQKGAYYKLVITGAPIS

Bile salt export pump [2] = molecular target: Bile salt export pump (Homo sapiens, UniProt O95342); assay: Inhibition of human BSEP expressed in plasma membrane vesicles of Sf21 cells assessed as inhibition of ATP-dependent [3H]taurocholate uptake; format: cell membranes
Chain of Bile salt export pump (Homo sapiens, UniProt O95342) (O95342 whole entry): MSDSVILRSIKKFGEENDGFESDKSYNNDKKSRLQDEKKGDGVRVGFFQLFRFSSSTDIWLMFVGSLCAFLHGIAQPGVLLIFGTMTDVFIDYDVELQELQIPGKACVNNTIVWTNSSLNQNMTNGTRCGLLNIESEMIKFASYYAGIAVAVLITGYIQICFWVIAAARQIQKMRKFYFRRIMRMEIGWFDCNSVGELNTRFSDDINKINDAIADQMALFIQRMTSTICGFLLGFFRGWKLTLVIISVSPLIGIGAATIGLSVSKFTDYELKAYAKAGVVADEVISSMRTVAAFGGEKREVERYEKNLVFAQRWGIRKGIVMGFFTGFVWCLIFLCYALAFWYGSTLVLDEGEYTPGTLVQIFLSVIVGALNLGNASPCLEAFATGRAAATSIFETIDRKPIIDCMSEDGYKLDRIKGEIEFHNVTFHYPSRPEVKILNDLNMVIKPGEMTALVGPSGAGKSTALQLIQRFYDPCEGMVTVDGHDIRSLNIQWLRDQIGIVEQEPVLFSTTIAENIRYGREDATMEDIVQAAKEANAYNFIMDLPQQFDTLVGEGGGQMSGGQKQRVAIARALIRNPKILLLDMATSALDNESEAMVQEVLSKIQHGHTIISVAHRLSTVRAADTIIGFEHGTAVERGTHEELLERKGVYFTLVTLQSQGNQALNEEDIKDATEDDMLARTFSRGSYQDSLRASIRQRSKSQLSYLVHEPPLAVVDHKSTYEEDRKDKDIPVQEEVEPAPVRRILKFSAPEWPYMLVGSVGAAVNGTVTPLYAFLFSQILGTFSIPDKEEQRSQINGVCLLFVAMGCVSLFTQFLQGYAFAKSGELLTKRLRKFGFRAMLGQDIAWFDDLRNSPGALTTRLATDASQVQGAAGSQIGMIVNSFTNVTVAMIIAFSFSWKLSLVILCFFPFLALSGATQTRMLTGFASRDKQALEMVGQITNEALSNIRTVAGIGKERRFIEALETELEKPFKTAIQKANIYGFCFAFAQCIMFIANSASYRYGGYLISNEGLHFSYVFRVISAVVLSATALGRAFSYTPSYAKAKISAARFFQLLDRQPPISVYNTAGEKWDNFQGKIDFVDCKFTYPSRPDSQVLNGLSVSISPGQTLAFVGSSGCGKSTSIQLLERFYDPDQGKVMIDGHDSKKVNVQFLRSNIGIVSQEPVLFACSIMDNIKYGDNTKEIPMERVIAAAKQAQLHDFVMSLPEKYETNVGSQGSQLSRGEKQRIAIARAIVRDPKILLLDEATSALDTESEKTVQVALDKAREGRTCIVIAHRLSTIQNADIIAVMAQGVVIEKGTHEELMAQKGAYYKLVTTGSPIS

## Cc1onc(-c2c(F)cccc2Cl)c1C(=O)N[C@@H]1C(=O)N2[C@@H]1SC(C)(C)[C@@H]2C(=O)O [FLOXACILLIN]
Bile salt export pump [1]
  IC50: 429 µM
Bile salt export pump [2]
  IC50: 209 µM

## CCOC(=O)c1ncn2c1CN(C)C(=O)c1cc(F)ccc1-2 [FLUMAZENIL]
Bile salt export pump [1]
  IC50: > 1000 µM
Bile salt export pump [2]
  IC50: > 1000 µM

## CC(C)C(=O)Nc1ccc([N+](=O)[O-])c(C(F)(F)F)c1 [FLUTAMIDE]
Bile salt export pump [1]
  IC50: 78.7 µM
Bile salt export pump [2]
  IC50: 143 µM

## NS(=O)(=O)c1cc(C(=O)O)c(NCc2ccco2)cc1Cl [FUROSEMIDE]
Bile salt export pump [1]
  IC50: > 1000 µM

## CC(=O)O[C@H]1C[C@@]2(C)[C@@H](C[C@@H](O)[C@H]3[C@@]4(C)CC[C@@H](O)[C@@H](C)[C@@H]4CC[C@@]32C)/C1=C(\CCC=C(C)C)C(=O)O [FUSIDIC ACID]
Bile salt export pump [1]
  IC50: 17.4 µM
Bile salt export pump [2]
  IC50: 11.5 µM

## O=C(OCC(O)CO)c1ccccc1Nc1ccnc2cc(Cl)ccc12 (centres undefined) [GLAFENINE]
Bile salt export pump [1]
  IC50: 32.2 µM
Bile salt export pump [2]
  IC50: 22.3 µM

## Cc1ccc(S(=O)(=O)NC(=O)NN2CC3CCCC3C2)cc1 (centres undefined) [GLICLAZIDE]
Bile salt export pump [1]
  IC50: > 1000 µM
Bile salt export pump [2]
  IC50: > 1000 µM

## COc1ccc(Cl)cc1C(=O)NCCc1ccc(S(=O)(=O)NC(=O)NC2CCCCC2)cc1 [GLYBURIDE]
Bile salt export pump [1]
  IC50: 2.8 µM

## CC(C)Cc1ccc(C(C)C(=O)O)cc1 (centres undefined) [IBUPROFEN]
Bile salt export pump [1]
  IC50: 291 µM
Bile salt export pump [2]
  IC50: 599 µM

## CC(C)NNC(=O)c1ccncc1 [IPRONIAZID]
Bile salt export pump [1]
  IC50: > 1000 µM
Bile salt export pump [2]
  IC50: > 1000 µM

## NNC(=O)c1ccncc1 [ISONIAZID]
Bile salt export pump [1]
  IC50: > 1000 µM
Bile salt export pump [2]
  IC50: > 1000 µM

## CC(C)NCC(O)c1ccc(O)c(O)c1 (centres undefined) [ISOPROTERENOL]
Bile salt export pump [1]
  IC50: > 1000 µM
Bile salt export pump [2]
  IC50: > 1000 µM

## CC(=O)N1CCN(c2ccc(OCC3COC(Cn4ccnc4)(c4ccc(Cl)cc4Cl)O3)cc2)CC1 (centres undefined) [KETOCONAZOLE]
Bile salt export pump [1]
  IC50: 15.6 µM

## CN1CCC(=C2c3ccccc3CC(=O)c3sccc32)CC1 [KETOTIFEN]
Bile salt export pump [1]
  IC50: > 1000 µM
Bile salt export pump [2]
  IC50: 738 µM

## Cc1oncc1C(=O)Nc1ccc(C(F)(F)F)cc1 [LEFLUNOMIDE]
Bile salt export pump [1]
  IC50: 112 µM
Bile salt export pump [2]
  IC50: 177 µM

## C[C@H]1COc2c(N3CCN(C)CC3)c(F)cc3c(=O)c(C(=O)O)cn1c23 [LEVOFLOXACIN]
Bile salt export pump [1]
  IC50: > 1000 µM
Bile salt export pump [2]
  IC50: > 1000 µM

## CN(Cc1cnc2nc(N)nc(N)c2n1)c1ccc(C(=O)N[C@@H](CCC(=O)O)C(=O)O)cc1 [METHOTREXATE]
Bile salt export pump [1]
  IC50: > 1000 µM
Bile salt export pump [2]
  IC50: > 1000 µM

## C[C@](N)(Cc1ccc(O)c(O)c1)C(=O)O [METHYLDOPA]
Bile salt export pump [1]
  IC50: > 1000 µM
Bile salt export pump [2]
  IC50: > 1000 µM

## CCc1nn(CCCN2CCN(c3cccc(Cl)c3)CC2)c(=O)n1CCOc1ccccc1 [NEFAZODONE]
Bile salt export pump [1]
  IC50: 17.4 µM
Bile salt export pump [2]
  IC50: 4.2 µM

## COC(=O)C1=C(C)NC(C)=C(C(=O)OC)C1c1ccccc1[N+](=O)[O-] [NIFEDIPINE]
Bile salt export pump [1]
  IC50: 45.4 µM
Bile salt export pump [2]
  IC50: 30.7 µM

## O=C1CN(/N=C/c2ccc([N+](=O)[O-])o2)C(=O)N1 [NITROFURANTOIN]
Bile salt export pump [1]
  IC50: > 1000 µM

## CN1Cc2c(N)cccc2C(c2ccccc2)C1 (centres undefined) [NOMIFENSINE]
Bile salt export pump [1]
  IC50: > 1000 µM
Bile salt export pump [2]
  IC50: > 1000 µM

## C#CCN(C)Cc1ccccc1 [PARGYLINE]
Bile salt export pump [1]
  IC50: > 1000 µM
Bile salt export pump [2]
  IC50: > 1000 µM

## CC(C)(S)[C@@H](N)C(=O)O [PENICILLAMINE]
Bile salt export pump [1]
  IC50: > 1000 µM
Bile salt export pump [2]
  IC50: > 1000 µM

## CNC(=O)Oc1ccc2c(c1)[C@]1(C)CCN(C)[C@@H]1N2C [PHYSOSTIGMINE]
Bile salt export pump [1]
  IC50: > 1000 µM
Bile salt export pump [2]
  IC50: > 1000 µM

## COc1ccc(C(=O)NCc2cccnc2)cc1C(=O)NCc1cccnc1 [PICOTAMIDE]
Bile salt export pump [1]
  IC50: 637 µM
Bile salt export pump [2]
  IC50: 441 µM

## CC(N/C(=N\C#N)Nc1ccncc1)C(C)(C)C (centres undefined) [PINACIDIL ANHYDROUS]
Bile salt export pump [1]
  IC50: 222 µM
Bile salt export pump [2]
  IC50: 348 µM

## CCc1ccc(CCOc2ccc(CC3SC(=O)NC3=O)cc2)nc1 (centres undefined) [PIOGLITAZONE]
Bile salt export pump [1]
  IC50: 2 µM
Bile salt export pump [2]
  IC50: 0.3 µM

## CC(=O)Nc1ccc(OCC(O)CNC(C)C)cc1 (centres undefined) [PRACTOLOL]
Bile salt export pump [1]
  IC50: > 1000 µM
Bile salt export pump [2]
  IC50: > 1000 µM

## O=C(C1CCCCC1)N1CC(=O)N2CCc3ccccc3C2C1 (centres undefined) [PRAZIQUANTEL]
Bile salt export pump [1]
  IC50: 153 µM
Bile salt export pump [2]
  IC50: 96.8 µM

## CCCN(CCC)S(=O)(=O)c1ccc(C(=O)O)cc1 [PROBENECID]
Bile salt export pump [1]
  IC50: 510 µM
Bile salt export pump [2]
  IC50: 565 µM

## Cc1ncc(CO)c(CO)c1O [PYRIDOXINE]
Bile salt export pump [1]
  IC50: > 1000 µM
Bile salt export pump [2]
  IC50: > 1000 µM

## CNC(=C[N+](=O)[O-])NCCSCc1ccc(CN(C)C)o1 [RANITIDINE]
Bile salt export pump [1]
  IC50: > 1000 µM

## CO[C@H]1/C=C/O[C@@]2(C)Oc3c(C)c(O)c4c(O)c(c(/C=N/N5CCN(C)CC5)c(O)c4c3C2=O)NC(=O)/C(C)=C\C=C\[C@H](C)[C@H](O)[C@@H](C)[C@@H](O)[C@@H](C)[C@H](OC(C)=O)[C@@H]1C [RIFAMPIN]
Bile salt export pump [1]
  IC50: 34.7 µM
Bile salt export pump [2]
  IC50: 11.3 µM

## CO[C@H]1/C=C/O[C@@]2(C)Oc3c(C)c(O)c4c(O)c(cc(O)c4c3C2=O)NC(=O)/C(C)=C\C=C\[C@H](C)[C@H](O)[C@@H](C)[C@@H](O)[C@@H](C)[C@H](OC(C)=O)[C@@H]1C [RIFAMYCIN]
Bile salt export pump [1]
  IC50: 3.1 µM
Bile salt export pump [2]
  IC50: 6.3 µM

## CN(CCOc1ccc(CC2SC(=O)NC2=O)cc1)c1ccccn1 (centres undefined) [ROSIGLITAZONE]
Bile salt export pump [1]
  IC50: 40 µM
Bile salt export pump [2]
  IC50: 6.4 µM

## O=C(O)c1ccccc1O [SALICYLIC ACID]
Bile salt export pump [1]
  IC50: > 1000 µM
Bile salt export pump [2]
  IC50: > 1000 µM
